PubChem BioAssay AID1963874 (Molecular Pharmacology Branch, DTP, NCI, 2024)

Tested on: 253994-281-T-J1-PDC KRAS-mutant spheroids with HUVEC/MSC, viability
Assay: Anticancer human tumor 253994-281-T-J1-PDC patient-derived colorectal carcinoma cell line growth inhibition [KRAS2]
Conditions: for IC50: curve of first compound; for viability, T/C: stronger effect = lower value
Procedure, shortened: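 KRAS-mutant tumor cells were grown as spheroids with HUVEC endothelial cells and human MSCs as stroma. Targeted agents were tested alone and with KRAS pathway inhibitors. Doses started at or near clinical Cmax, or 10 microM, descending half-log.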

[1] = second compound 0.1 µM, first compound 0.000316 µM
[2] = second compound 0.1 µM, first compound 0.001 µM
[3] = second compound 0.1 µM, first compound 0.00316 µM
[4] = second compound 0.1 µM, first compound 0.01 µM
[5] = second compound 0.1 µM, first compound 0.0316 µM
[6] = second compound 0.1 µM, first compound 0.1 µM
[7] = second compound 0.316 µM, first compound 0.000316 µM
[8] = second compound 0.316 µM, first compound 0.001 µM
[9] = second compound 0.316 µM, first compound 0.00316 µM
[10] = second compound 0.316 µM, first compound 0.01 µM
[11] = second compound 0.316 µM, first compound 0.0316 µM
[12] = second compound 0.316 µM, first compound 0.1 µM
[13] = second compound 1 µM, first compound 0.000316 µM
[14] = second compound 1 µM, first compound 0.001 µM
[15] = second compound 1 µM, first compound 0.00316 µM
[16] = second compound 1 µM, first compound 0.01 µM
[17] = second compound 1 µM, first compound 0.0316 µM
[18] = second compound 1 µM, first compound 0.1 µM
[19] = second compound 3.16 µM, first compound 0.000316 µM
[20] = second compound 3.16 µM, first compound 0.001 µM
[21] = second compound 3.16 µM, first compound 0.00316 µM
[22] = second compound 3.16 µM, first compound 0.01 µM
[23] = second compound 3.16 µM, first compound 0.0316 µM
[24] = second compound 3.16 µM, first compound 0.1 µM
[25] = second compound 10 µM, first compound 0.000316 µM
[26] = second compound 10 µM, first compound 0.001 µM
[27] = second compound 10 µM, first compound 0.00316 µM
[28] = second compound 10 µM, first compound 0.01 µM
[29] = second compound 10 µM, first compound 0.0316 µM
[30] = second compound 10 µM, first compound 0.1 µM
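Note: spheroids exposed to agents for seven days before readout.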
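Throughout, for viability, T/C: percent of DMSO vehicle control viability.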

Structure (SMILES) | IC50 (second compound 0.1 µM) [nM] | IC50 (second compound 0.316 µM) [nM] | IC50 (second compound 1 µM) [nM] | IC50 (second compound 3.16 µM) [nM] | viability, T/C [1] [%] | viability, T/C [2] [%] | viability, T/C [3] [%] | viability, T/C [4] [%] | viability, T/C [5] [%] | viability, T/C [6] [%] | viability, T/C [7] [%] | viability, T/C [10] [%] | viability, T/C [11] [%] | viability, T/C [12] [%] | viability, T/C [16] [%] | viability, T/C [17] [%] | viability, T/C [18] [%] | viability, T/C [22] [%] | viability, T/C [23] [%] | viability, T/C [24] [%] | further results
CN(C)C/C=C/C(=O)Nc1cc2c(Nc3ccc(F)c(Cl)c3)ncnc2cc1O[C@H]1CCOC1 + C=CC(=O)N1CCN(c2nc(OCC3CCCN3C)nc3c2CCN(c2cccc4cccc(C)c24)C3)CC1CC#N | > 100 | > 100 | > 100 | 0.72 | 83.2 | 91.5 | 76.6 | 86.1 | 69.2 | 53.8 | 95.7 | 77.4 | 78.3 | 66.5 | 69.4 | 73.1 | 62.2 | 22 | 19.6 | 5.55 | IC50 (second compound 0.0316 µM): > 100 nM; viability, T/C (second compound 0.0316 µM, first compound 0.000316 µM): 95.7%; viability, T/C (second compound 0.0316 µM, first compound 0.001 µM): 89.4%; viability, T/C (second compound 0.0316 µM, first compound 0.00316 µM): 92.3%; viability, T/C (second compound 0.0316 µM, first compound 0.01 µM): 95.7%; viability, T/C (second compound 0.0316 µM, first compound 0.0316 µM): 88.5%; viability, T/C (second compound 0.0316 µM, first compound 0.1 µM): 54%; viability, T/C [8]: 81.3%; viability, T/C [9]: 87.5%; viability, T/C [13]: 97.9%; viability, T/C [14]: 108%; viability, T/C [15]: 83.1%; viability, T/C [19]: 53.8%; viability, T/C [20]: 48.5%; viability, T/C [21]: 4.58%
CC(C)n1nc(-c2ccc3oc(N)nc3c2)c2c(N)ncnc21 + CC1OCC2(CCN(c3cnc(Sc4ccnc(N)c4Cl)c(N)n3)CC2)C1N | > 100 | > 100 | 87.6 | 17.7 | 97.9 | 100 | 101 | 81 | 76.5 | 56.9 | 93.6 | 77.7 | 68.5 | 49.8 | 67.8 | 57.6 | 49.4 | 55.2 | 44 | 36.5 | IC50 (second compound 10 µM): < 0.316 nM; viability, T/C [8]: 76.7%; viability, T/C [9]: 78.9%; viability, T/C [13]: 85.3%; viability, T/C [14]: 73.2%; viability, T/C [15]: 82.8%; viability, T/C [19]: 62%; viability, T/C [20]: 64.6%; viability, T/C [21]: 67.3%; viability, T/C [25]: 40.1%; viability, T/C [26]: 40.7%; viability, T/C [27]: 43.2%; viability, T/C [28]: 44.5%; viability, T/C [29]: 39.2%; viability, T/C [30]: 28.2%
CC(C)n1nc(-c2ccc3oc(N)nc3c2)c2c(N)ncnc21 + C=CC(=O)N1CCN(c2nc(=O)n(-c3c(C)ccnc3C(C)C)c3nc(-c4c(O)cccc4F)c(F)cc23)C(C)C1 | > 100 | > 100 | > 100 | > 100 | 106 | 106 | 101 | 99.3 | 90.4 | 78.3 | 98.5 | 85.9 | 92.1 | 68.1 | 78.3 | 82 | 64.1 | 75.2 | 89.1 | 65.1 | IC50 (second compound 10 µM): > 100 nM; viability, T/C [8]: 97.1%; viability, T/C [9]: 87.8%; viability, T/C [13]: 102%; viability, T/C [14]: 98.8%; viability, T/C [15]: 95.7%; viability, T/C [19]: 108%; viability, T/C [20]: 105%; viability, T/C [21]: 83.5%; viability, T/C [25]: 88.7%; viability, T/C [26]: 93.8%; viability, T/C [27]: 97.7%; viability, T/C [28]: 80.1%; viability, T/C [29]: 84.8%; viability, T/C [30]: 61.9%
COc1cc(Nc2ncc3c(n2)-c2ccc(Cl)cc2C(c2c(F)cccc2OC)=NC3)ccc1C(=O)O | – | – | – | – | – | – | – | – | – | – | – | – | – | – | – | – | – | – | – | – | viability, T/C (compound 0.0316 µM): 64.9% [middle of 5 runs]; viability, T/C (compound 0.1 µM): 38.8% [middle of 5 runs]; viability, T/C (compound 0.316 µM): 39.4% [middle of 5 runs]; viability, T/C (compound 1 µM): 44.9% [middle of 5 runs]; viability, T/C (compound 10 µM): 60.8% [middle of 5 runs]
CC1COCCN1c1cc(-c2ccnn2C)c2ccnc(-c3ccn[nH]3)c2n1 (stereo not given) + CNCc1ccccc1-c1csc(C(C)Nc2nc(C)nc3cc(OC)c(OC)cc23)c1 | > 3160 | > 3160 | 296 | < 10 | – | – | – | 85.8 | 106 | 76.1 | – | 108 | 91.5 | 73.5 | 89.5 | 85.5 | 67.5 | 42.9 | 42 | 27.3 | IC50 (second compound 10 µM): < 10 nM; viability, T/C (second compound 0.1 µM, first compound 0.316 µM): 50.7%; viability, T/C (second compound 0.1 µM, first compound 1 µM): 60.2%; viability, T/C (second compound 0.1 µM, first compound 3.16 µM): 52.4%; viability, T/C (second compound 0.316 µM, first compound 0.316 µM): 46.5%; viability, T/C (second compound 0.316 µM, first compound 1 µM): 55.9%; viability, T/C (second compound 0.316 µM, first compound 3.16 µM): 57.1%; viability, T/C (second compound 1 µM, first compound 0.316 µM): 47%; viability, T/C (second compound 1 µM, first compound 1 µM): 54.8%; viability, T/C (second compound 1 µM, first compound 3.16 µM): 42.1%; viability, T/C (second compound 3.16 µM, first compound 0.316 µM): 17.9%; viability, T/C (second compound 3.16 µM, first compound 1 µM): 24%; viability, T/C (second compound 3.16 µM, first compound 3.16 µM): 14.9%; viability, T/C [28]: 0.59%; viability, T/C [29]: 0.21%; viability, T/C [30]: 0.17%; viability, T/C (second compound 10 µM, first compound 0.316 µM): 0.19%; viability, T/C (second compound 10 µM, first compound 1 µM): 0.16%; viability, T/C (second compound 10 µM, first compound 3.16 µM): 0.23%
